Experimental data taken from US20260103473A1 (Avanc Pharmaceutical Co., Ltd., priority 2022, published 2026).
Where a name gives a salt, the structure may show the parent alone.

How the values were obtained:
Format in all cases: physicochemical
[1] = Test of solubility of salts of the compound of formula (I) in water; conditions: room temperature, Table 10; for Solution state: after addition of water; for solubility: thermodynamic from solid, water, monocitrate vs dicitrate
Protocol: About 4-20 mg of salt of the compound of formula (I) was weighed, and the salt was added to the EP tube. A certain amount of solvent was added successively at room temperature. The solution was stirred, and it was observed whether the solid was completely dissolved. If the solid had not been completely dissolved after 10.0 mL of solvent was added, the experiment was stopped. The solubility of the compound in the solvent was estimated based on the volume of solvent used when the solid was completely dissolved.

[2] = Hygroscopicity of salts of the compound of formula (I) (weight gain at 95% humidity); conditions: humidity 50% raised to 95% in increments of 15%, 60 min each
Protocol: The compound of formula (I) was placed in a humid environment, wherein the initial humidity of the environment was 50%, and the humidity was increased to 95% in increments of 15%. The maintenance time for each humidity gradient was 60 min. After the ambient humidity was maintained at 95% for 60 min, the weight gain of each salt form was tested to determine the hygroscopicity of the corresponding salt form.
According to the test procedures of Test Example 2, the solubility of the monocitrate salt and dicitrate salt of the compound of formula (I) were respectively tested.

[3] = Moisture absorption study of crystal forms by dynamic vapor sorption (DVS) with XRPD afterwards; conditions: for weight increase at 80% RH during the adsorption process / weight increase at 95% RH: DVS, with reference to the mass at 50% RH; for XRPD pattern after DVS testing: after humidity cycle 50%-95%-50%
Protocol: Dynamic vapor sorption and desorption analysis of crystal forms were performed using DVS Intrinsic (SMS, UK) to evaluate the hygroscopicity of the crystal forms. The gradient mode was used for the test. The humidity change was 50%-95%-50%. The humidity change amount of each gradient was 15%. The gradient endpoint was determined in the dm/dt manner, with dm/dt less than 0.002% and maintained for 10 minutes as the gradient endpoint, or the maximum maintenance time of each gradient was 60 min. After the test was completed, XRPD analysis was performed on the sample to confirm whether the solid form changed.

[4] = Stability study of crystal forms (XRPD characterization); conditions: high temperature (60° C.), high humidity (25° C./92.5% RH), illumination (25° C./4500 Lux), accelerated (40° C./75% RH); up to 15 days
Protocol: Stability studies under conditions of high temperature (60° C.), high humidity (25° C./92.5% RH), illumination (25° C./4500 Lux), and accelerated condition (40° C./75% RH) were performed on the crystal forms of the compound of formula (I). Samples were taken for XRPD characterization on the 7th and 15th days respectively.
The crystal form G was stored at room temperature for 1 day.

[5] = Dynamic solubility test in biological media and water; conditions: for solubility at 0.5 h / solubility at 2 h / solubility at 24 h: thermodynamic from solid
Excerpt: Wherein, FaSSIF could be used to simulate the intestinal fluid in the small intestine in the human pre-prandial hunger state; FeSSIF could be used to simulate the intestinal fluid in the small intestine in the human post-prandial satiety state; FaSSGF could be used to simulate the stomach in the empty stomach in the human hunger state.

[6] = Description of crystal form A: hygroscopicity and solubility in solvents
[7] = monocitrate vs dicitrate, Table 11

Compound: CN1CCN(C2CCN(c3ccc(Nc4ncc5sc(C(=O)N(C)C)c(C6CCCC6)c5n4)nc3)CC2)CC1 [Dicitrate salt]
- Solution state [1]: clear
- solubility [1]: > 33 mg/mL
- Weight gain at 95% humidity [2, 7]: 0.64%

Compound: CN1CCN(C2CCN(c3ccc(Nc4ncc5sc(C(=O)N(C)C)c(C6CCCC6)c5n4)nc3)CC2)CC1.O=C(O)CC(O)(CC(=O)O)C(=O)O [Monocitrate salt]
- Solution state [1]: clear
- solubility [1]: > 33 mg/mL
- Weight gain at 95% humidity [2, 7]: 3.45%

Compound: CN1CCN(C2CCN(c3ccc(Nc4ncc5sc(C(=O)N(C)C)c(C6CCCC6)c5n4)nc3)CC2)CC1 [crystal form A]
- weight increase at 80% RH during the adsorption process [3]: 0.25%
- weight increase at 95% RH [3]: 0.64%
- XRPD pattern after DVS testing [3]: did not change significantly
- crystal form transformation by XRPD [4]: without any crystal form transformation occurring
- XRPD of the remaining solid ([5]; FaSSGF): No solid remained
- Final pH ([5]; FaSSGF, initial pH 1.6): 2.5
- XRPD of the remaining solid ([5]; FaSSIF): No solid remained
- Final pH ([5]; FaSSIF, initial pH 6.5): 4.3
- XRPD of the remaining solid ([5]; FeSSIF): No solid remained
- Final pH ([5]; FeSSIF, initial pH 5.0): 4.6
- Final pH ([5]; Water): 3.8
- XRPD of the remaining solid ([5]; Water): No solid remained
- solubility at 0.5 h ([5]; fassgf or other biorelevant, FaSSGF, pH 1.6, 0.5 h): > 5.47 mg/mL
- solubility at 2 h ([5]; fassgf or other biorelevant, FaSSGF, pH 1.6, 2 h): > 5.48 mg/mL
- solubility at 24 h ([5]; fassgf or other biorelevant, FaSSGF, pH 1.6, 24 h): > 5.38 mg/mL
- solution state after suspension for 24 h ([5]; four media (FaSSIF, FeSSIF, FaSSGF, water)): still clear
- time to dissolve ([5]; suspended in four media (FaSSIF, FeSSIF, FaSSGF, water)): ≤ 0.5 h
- solubility at 0.5 h ([5]; FaSSIF, pH 6.5, 0.5 h): > 5.15 mg/mL
- solubility at 2 h ([5]; FaSSIF, pH 6.5, 2 h): > 5.11 mg/mL
- solubility at 24 h ([5]; FaSSIF, pH 6.5, 24 h): > 5.18 mg/mL
- solubility at 0.5 h ([5]; FeSSIF, pH 5.0, 0.5 h): > 5.46 mg/mL
- solubility at 2 h ([5]; FeSSIF, pH 5.0, 2 h): > 5.48 mg/mL
- solubility at 24 h ([5]; FeSSIF, pH 5.0, 24 h): > 5.47 mg/mL
- solubility at 0.5 h ([5]; Water, 0.5 h): > 5.54 mg/mL
- solubility at 2 h ([5]; Water, 2 h): > 5.45 mg/mL
- solubility at 24 h ([5]; Water, 24 h): > 5.48 mg/mL
- hygroscopicity (description) [6]: slightly hygroscopic
- solubility (description) ([6]; 0.1 mol/L hydrochloric acid solution): readily soluble
- solubility (description) ([6]; Water): readily soluble
- solubility (description) ([6]; acetic acid): readily soluble
- solubility (description) ([6]; ethanol): nearly insoluble
- solubility (description) ([6]; methanol): slightly soluble

Compound: CN1CCN(C2CCN(c3ccc(Nc4ncc5sc(C(=O)N(C)C)c(C6CCCC6)c5n4)nc3)CC2)CC1 [crystal form B]
- weight increase at 80% RH during the adsorption process [3]: 0.24%
- weight increase at 95% RH [3]: 0.69%
- XRPD pattern after DVS testing [3]: did not change significantly
- crystal form transformation by XRPD [4]: did not undergo crystal form transformation

Compound: CN1CCN(C2CCN(c3ccc(Nc4ncc5sc(C(=O)N(C)C)c(C6CCCC6)c5n4)nc3)CC2)CC1 [crystal form C]
- weight increase at 80% RH during the adsorption process [3]: 0.42%
- weight increase at 95% RH [3]: 3.45%
- XRPD pattern after DVS testing [3]: did not change significantly
- crystal form transformation by XRPD [4]: did not undergo crystal form transformation

Compound: CN1CCN(C2CCN(c3ccc(Nc4ncc5sc(C(=O)N(C)C)c(C6CCCC6)c5n4)nc3)CC2)CC1 [crystal form D]
- weight increase at 80% RH during the adsorption process [3]: 0.85%
- weight increase at 95% RH [3]: 4.45%
- XRPD pattern after DVS testing [3]: did not change significantly
- crystal form transformation by XRPD [4]: did not undergo significant crystal form transformation

Compound: L-Tartrate
- Weight gain at 95% humidity ([2]; Table 9): 8.18%
